In brackets after ≈: the same amount, converted by molar mass.
Assays:
Assay type in all cases: cell-based
tested cancer cell lines = test: MTS assay, span over the tested cell lines; details: Homo sapiens, 72 h
Description: (§1) The human cancer cell line HCT116 (human colorectal adenocarcinoma), HeLa (human cervical adenocarcinoma), Jurkat (human leukemic T cell lymphoma), and MDA-MB-231 (human mammary gland adenocarcinoma, triple-negative) were cultured in RPMI 1640 medium (Biosera, Kansas City, MO, USA). MCF-7 (human breast adenocarcinoma), A2058 (human metastatic melanoma), PANC-1 (human pancreatic adenocarcinoma), and NIH 3T3 (murine fibroblasts) cell lines were maintained in a growth medium consisting of high glucose Dulbecco’s Modified Eagle Medium with sodium pyruvate (Biosera, Kansas City, MO, USA). MCF-10A cell line (human mammary gland epithelial cells) was maintained in a growth medium consisting of high glucose DMEM F12 Medium (Biosera, Kansas City, MO, USA) + Suppl. (insulin, EGF-[…], HC-hydrocortisone, choleratoxin all Sigma, Steinheim, Germany). The growth medium was supplemented with a 10% fetal bovine serum, penicillin (100 IU/mL), and streptomycin (100 μg/mL) (all Invitrogen, Carlsbad, CA, USA), and cells were maintained in an atmosphere containing 5% CO2 in humidified air at 37 °C. Cell viability, estimated by trypan exclusion, was greater than 95% before each experiment.
(§2) The metabolic activity colorimetric assay (MTS) was used to determine the effects of CA (c = 10–300 µM) and compounds CAP 6, CAP 8, CAP 10, and CAP 12 (c = 1–100 µM) on the metabolic activity of several cell lines. After 72 h of incubation, 10 µL of MTS (Promega, Madison, WI, USA) was added to each well according to the CellTiter 96® AQueous One Solution Cell Proliferation Assay protocol. After a minimum of 1 h incubation, the absorbance was measured at 490 nm using the automated Cytation^TM 3 Cell Imaging Multi-Mode Reader (Biotek, Winooski, VT, USA). The absorbance of the control wells was taken as 1.0 (100%), and the results were expressed as a fold of the control. All experiments were performed in triplicate. Ideal predictive IC50 values were calculated from MTS analyses-based concentration concentration-dependent trends.

[1] = system: Staphylococcus aureus (MR) CCM 4750; test: Broth microdilution MIC and MBC; details: for MIC: CCM4750, S. aureus methicillin-resistant CCM 4750; for MBC: CCM4750, S. aureus methicillin-resistant CCM 4750, inactivating 99.9% of inoculum
Description: (§3) The antimicrobial activity of caffeic acid and its semi-synthetic derivates was tested against Gram-positive (Staphylococcus aureus CCM 4750, methicillin-resistant; Staphylococcus aureus CCM 4223, methicillin-susceptible; Enterococcus faecalis CCM 4224) and Gram-negative bacteria (Pseudomonas aeruginosa CCM 3955; Escherichia coli CCM 3954; Klebsiella pneumoniae CCM 4415; Proteus mirabilis CCM 7188), and one strain of a yeast Candida albicans (CCM 8267). Microbial strains were purchased from the Czech Collection of Microorganisms, Brno, Czech Republic, and preserved in aliquots in cryoprotective media at −20 °C until the testing. Revival of cryoprotected bacteria took place by overnight cultivation on blood agar and an additional passage on blood agar. Minimal inhibitory concentrations (MIC) against bacteria were detected by broth microdilution test in sterile 96-well U-shaped microtiter plates (Roll s.a.s., Piove di Sacco, Italy) according to the EUCAST recommendations. The test was performed in 100 μL volumes in microtiter plate wells with a final bacterial concentration of 5 × 10^5 CFU·mL^−1. Antifungal activity testing was performed according to the EUCAST-recommended method for the determination of broth dilution minimum inhibitory concentrations of antifungal agents for yeasts, with some modifications. The final yeast concentration in the test wells was 10^4 CFU·mL^−1. The minimal bactericidal/fungicidal concentrations (MBC/MFC) were detected by point-inoculation of 5 μL aliquots from test wells without visible growth on solid agar media free of antimicrobials. Mueller–Hinton broth and agar were used for bacteria, and Sabouraud dextrose broth and agar for fungi (OXOID, Basingstoke, Hampshire, UK). The tested agents were dissolved in 50% ethanol, and serial dilutions were prepared in the test medium to obtain final concentrations ranging from 5000 to 5 μg·mL^−1, which corresponds to 27,753—54 μM for caffeic acid, 7251—14 μM for CAP 6, 6967—14 μM for CAP 8, 6705—13 μM for CAP 10 and 6462—13 μM for CAP 12. Wells with media free of bacteria served as sterility control and wells with bacteria without antimicrobial agents were used as growth control. The MIC was determined to be the lowest concentration of the antimicrobial agent inhibiting the growth of the tested microorganism, and the MBC/MFC was determined to be the lowest concentration, inactivating 99.9% of microbial inoculum. All tests were performed in three independent runs to exclude possible excessive values due to permissible measurement error.

S. aureus (MS) CCM 4223 = test: Broth microdilution MIC and MBC; details: Staphylococcus aureus, CCM4223, S. aureus methicillin-susceptible CCM 4223; for MBC: inactivating 99.9% of inoculum
Description: as §3

[2] = system: Proteus mirabilis CCM 7188; test: Broth microdilution MIC and MBC; details: for MIC: CCM7188, P. mirabilis CCM 7188; for MBC: CCM7188, P. mirabilis CCM 7188, inactivating 99.9% of inoculum
Description: as §3

[3] = system: Klebsiella pneumoniae CCM 4415; test: Broth microdilution MIC and MBC; details: for MIC: CCM4415, K. pneumoniae CCM 4415; for MBC: CCM4415, K. pneumoniae CCM 4415, inactivating 99.9% of inoculum
Description: as §3

[4] = system: Pseudomonas aeruginosa CCM 3955; test: Broth microdilution MIC and MBC; details: for MIC / MBC: Pseudomonas aeruginosa, CCM3955, P. aeruginosa CCM 3955; for MBC: inactivating 99.9% of inoculum
Description: as §3

[5] = system: Enterococcus faecalis CCM 4224; test: Broth microdilution MIC and MBC; details: for MIC: CCM4224, E. faecalis CCM 4224; for MBC: CCM4224, E. faecalis CCM 4224, inactivating 99.9% of inoculum
Description: as §3

[6] = system: Escherichia coli CCM 3954; test: Broth microdilution MIC and MBC; details: for MIC: CCM3954, E. coli CCM 3954; for MBC: CCM3954, E. coli CCM 3954, inactivating 99.9% of inoculum
Description: as §3

[7] = system: NIH 3T3 (murine fibroblasts); test: MTS cell proliferation/viability assay, control cells; details: Mus musculus, NIH3T3, NIH 3T3 control cells, 72 h
Description: as §1, §2

[8] = system: MCF-10A cell line (human mammary gland epithelial cells); test: as above; details: MCF-10A control cells, 72 h
Description: as §1, §2

Row | SMILES | IC50 (tested cancer cell lines) [µM] | MIC [1] [µM] | MBC [1] [µM] | MIC (S. aureus (MS) CCM 4223) [µM] | MBC (S. aureus (MS) CCM 4223) [µM] | MIC [2] [µM] | MBC [2] [µM] | MIC [3] [µM] | MBC [3] [µM] | MIC/MBC ([4]; P. aeruginosa, corresponding to the μM value) [µg/mL] | MIC [4] [µM] | MBC [4] [µM] | MIC [5] [µM] | MBC [5] [µM] | MIC [6] [µM] | MBC [6] [µM] | IC50 [7] [µM] | IC50 [8] [µM]
1 | O=C(O)C=Cc1ccc(O)c(O)c1 [CA, 3-(3,4-dihydroxyphenyl)-2-propenoic acid, reference compound] | > 300 | 6940 (≈ 1250 µg/mL) | 13900 (≈ 2500 µg/mL) | 6940 (≈ 1250 µg/mL) | 13900 (≈ 2500 µg/mL) | 6940 (≈ 1250 µg/mL) | 6940 (≈ 1250 µg/mL) | 6940 (≈ 1250 µg/mL) | 6940 (≈ 1250 µg/mL) | 625 (≈ 3.47 mM) | 3470 (≈ 625 µg/mL) | 3470 (≈ 625 µg/mL) | 13900 (≈ 2500 µg/mL) | 27800 (≈ 5000 µg/mL) | 6940 (≈ 1250 µg/mL) | 13900 (≈ 2500 µg/mL) | > 300 | > 300
2 | CC(=O)Oc1ccc(/C=C/C(=O)OCCCCCC[P+](c2ccccc2)(c2ccccc2)c2ccccc2)cc1OC(C)=O [CAP 6, P,P,P-triphenyl-6-{(2E)-3-[3,4-(diacetyloxy)penyl]prop-2-enoyloxy}hexane-1-phosphanium bromide] | 30.5 to 44.5 | 14 | 14 | 14 | 14 | 453 | 453 | 28 | 28 | – | 453 | 453 | 57 | 57 | 227 | 227 | 44.4 ± 2.6 | 53.7 ± 0.2
3 | CC(=O)Oc1ccc(/C=C/C(=O)OCCCCCCCC[P+](c2ccccc2)(c2ccccc2)c2ccccc2)cc1OC(C)=O [CAP 8, P,P,P-triphenyl-8-{(2E)-3-[3,4-(diacetyloxy)penyl]prop-2-enoyloxy}okctane-1-phosphanium bromide] | 4.8 to 9.4 | 27 | 27 | 14 | 14 | 218 | 435 | 27 | 27 | – | 871 | 871 | 27 | 27 | 435 | 435 | 38.2 ± 1.8 | 42.3 ± 1.1
4 | CC(=O)Oc1ccc(/C=C/C(=O)OCCCCCCCCCC[P+](c2ccccc2)(c2ccccc2)c2ccccc2)cc1OC(C)=O [CAP 10, P,P,P-triphenyl-10-{(2E)-3-[3,4-(diacetyloxy)penyl]prop-2-enoyloxy}decane-1-phosphanium bromide] | 0.9 to 9.5 | 13 | 26 | 13 | 13 | 210 | 419 | 105 | 105 | – | 838 | 676 | 26 | 26 | 419 | 419 | 28 ± 1.3 | 31.1 ± 2.3
5 | CC(=O)Oc1ccc(/C=C/C(=O)OCCCCCCCCCCCC[P+](c2ccccc2)(c2ccccc2)c2ccccc2)cc1OC(C)=O [CAP 12, P,P,P-triphenyl-12-{(2E)-3-[3,4-(diacetyloxy)penyl]prop-2-enoyloxy}dodecane-1-phosphanium bromide] | 0.9 to 9.5 | 25 | 25 | 50 | 50 | 404 | 404 | 404 | 404 | – | 404 | 808 | 25 | 25 | 808 | 808 | 32.5 ± 0.9 | 33.7 ± 1.5

Reference: article PMC10817097, “Caffeic Acid Phosphanium Derivatives: Potential Selective Antitumor, Antimicrobial and Antiprotozoal Agents” (International Journal of Molecular Sciences, 2024)
